The source made the active and inactive calls. The calls are words filed in the database; no cut-off is given here.
Target: T1, Bile acid receptor (Mus musculus) (UniProt Q60641)
T1 sequence (whole entry): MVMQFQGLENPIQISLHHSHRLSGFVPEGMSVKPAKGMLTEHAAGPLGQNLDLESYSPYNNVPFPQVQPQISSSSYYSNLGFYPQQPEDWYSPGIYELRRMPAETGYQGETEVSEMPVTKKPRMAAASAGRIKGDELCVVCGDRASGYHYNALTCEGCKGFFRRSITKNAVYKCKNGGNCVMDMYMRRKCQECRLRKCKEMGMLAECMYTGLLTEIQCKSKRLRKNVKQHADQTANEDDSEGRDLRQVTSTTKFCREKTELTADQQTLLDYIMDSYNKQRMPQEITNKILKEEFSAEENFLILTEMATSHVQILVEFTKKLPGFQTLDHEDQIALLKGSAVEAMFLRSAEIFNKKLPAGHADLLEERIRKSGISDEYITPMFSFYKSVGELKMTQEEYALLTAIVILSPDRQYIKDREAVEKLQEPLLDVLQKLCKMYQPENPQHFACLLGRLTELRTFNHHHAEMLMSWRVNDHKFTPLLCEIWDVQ
Experiment: Agonist activity at mouse FXR expressed in HEK293 cells co-expressing mouse RXRalpha and ECRE-luc up to 100 uM by luciferase reporter gene assay
Assay type: functional, cell-based

| Structure (SMILES) | Activity |
| --- | --- |
| C1=C(c2ccc(OCc3ccccc3)c(OCc3ccccc3)c2)CC2CCCCC2C1 (stereo not drawn) | inactive |
| O=C(O)c1cnc2cc(OCCOc3ccc(F)cc3)ccc2c1O | inactive |
| COc1ccc(/C(C)=N/NC(=O)CC(=O)N(C(=O)c2ccccc2)c2ccc(C)cc2)cc1 | inactive |
| C[C@]12CC[C@H]3[C@@H](CCC4CC(=O)/C(=C\C(F)(F)F)C[C@@]43C)[C@@H]1CC[C@@H]2C(=O)O (stereo partly drawn) | inactive |
| O=C(O)c1ccc(C(=O)c2ccc(C(=O)c3ccc(C(=O)O)cc3)cc2)cc1 | inactive |
| Cc1cc(C(=O)CCCCCCCCC(=O)O)ccc1O | inactive |

Target: T1, Bile acid receptor (Mus musculus)
Experiment: Agonist activity at mouse FXR expressed in HEK293 cells co-expressing mouse RXRalpha and ECRE-luc by luciferase reporter gene assay
Assay type: functional, cell-based

| Structure (SMILES) | Activity |
| --- | --- |
| CCCCc1ccc([C@@H](CC(=O)c2ccccc2)c2ccccc2)cc1 | Dose-dependent effect |
| COc1ccc(N2CCN(C[C@H](O)COc3cc4c(c5c3CCCC5)CCCC4)CC2)cc1 | Dose-dependent effect |

From ChEMBL document CHEMBL1926508, “Pharmacophore-based discovery of FXR agonists. Part I: Model development and experimental validation” (Bioorg Med Chem, 2011)
